Active and inactive are the calls of the source. No cut-off for these calls is given here.
How the values were obtained:
[1] = biological target: T1, Biliverdin-producing heme oxygenase (Neisseria meningitidis, UniProt Q9AH50); experiment: Binding affinity to Neisseria meningitidis wild type apo heme oxygenase expressed in Escherichia coli BL21(DE3) pLysS by spectrofluorimetric analysis
T1 sequence (Q9AH50 whole entry): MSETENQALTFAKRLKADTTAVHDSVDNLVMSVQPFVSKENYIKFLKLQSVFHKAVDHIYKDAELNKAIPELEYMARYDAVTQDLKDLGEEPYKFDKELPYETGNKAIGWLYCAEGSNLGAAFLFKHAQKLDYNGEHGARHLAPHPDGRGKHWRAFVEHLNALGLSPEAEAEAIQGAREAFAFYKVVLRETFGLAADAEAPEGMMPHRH

Heme oxygenase = biological target: T2, Heme oxygenase (Pseudomonas aeruginosa, UniProt O69002); experiment: Binding affinity to Pseudomonas aeruginosa MPAO1 wild type apo heme oxygenase by spectrofluorimetric analysis
T2 sequence (O69002 whole entry): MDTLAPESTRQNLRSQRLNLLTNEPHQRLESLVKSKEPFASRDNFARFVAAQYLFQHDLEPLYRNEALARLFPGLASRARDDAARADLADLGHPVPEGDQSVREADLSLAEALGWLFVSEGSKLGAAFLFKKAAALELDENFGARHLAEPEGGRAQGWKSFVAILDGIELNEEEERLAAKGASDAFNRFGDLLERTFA

[2] = Solubility of the compound in methanol; assay type: physicochemical
[3] = Lipophilicity, log P of the compound; assay type: physicochemical; conditions: octanol/water; read-out: logP
Pseudomonas aeruginosa [4] = experiment: Antimicrobial activity against Pseudomonas aeruginosa MPAO1 infected in Caenorhabditis elegans assessed as prolongation of survival of infected worms; assay type: functional
[5] = Solubility of the compound in ethanol; assay type: physicochemical
Pseudomonas aeruginosa [6] = experiment: Antimicrobial activity against Pseudomonas aeruginosa MPAO1 after 10 hrs; assay type: functional; conditions: MPAO1, 10 h
[7] = Solubility of the compound in methanol/ethanol; assay type: physicochemical
Pseudomonas aeruginosa [8] = experiment: Growth inhibition of Pseudomonas aeruginosa MPAO1 at >250 uM after 10 hrs; assay type: functional
Pseudomonas aeruginosa [9] = experiment: Growth inhibition of Pseudomonas aeruginosa MPAO1 at 500 uM measured up to 6 hrs in presence of 25 uM of hemoglobin; assay type: functional
[10] = Decrease in heme oxygenase protein expression level in Pseudomonas aeruginosa MPAO1 at 0.5 mM measured every hr for 12 hrs in presence of 40 uM of Fe(3)-pyoverdin by Western blot analysis; assay type: functional
Pseudomonas aeruginosa [11] = experiment: Growth inhibition of Pseudomonas aeruginosa MPAO1 at >=500 uM after 10 hrs in presence of 40 uM of Fe(3)-pyoverdin; assay type: functional
Pseudomonas aeruginosa [12] = experiment: Growth inhibition of Pseudomonas aeruginosa MPAO1 assessed as cell growth recovery up to 1500 uM after 10 hrs in presence of 40 uM of Fe(3)-pyoverdin relative to control; assay type: functional; set-up: scale not given: the % may be the effect or the level left
Pseudomonas aeruginosa [13] = experiment: Growth inhibition of Pseudomonas aeruginosa MPAO1 assessed as induction of slower cell growth at 500 uM measured up to 6 hrs; assay type: functional
[14] = Decrease in heme oxygenase protein expression level in Pseudomonas aeruginosa MPAO1 at 0.5 mM measured after 6 hrs in presence of 40 uM of Fe(3)-pyoverdin by Western blot analysis; assay type: functional
[15] = Decrease in heme oxygenase protein expression level in Pseudomonas aeruginosa MPAO1 at 0.5 mM measured every hr for 12 hrs in presence of 25 uM of hemoglobin by Western blot analysis; assay type: functional

Structure (SMILES) | solubility [2] | logP [3] | solubility [5] | further results
CCN(CC)c1ccc(/C=N/n2nnnc2N)c(O)c1 | Soluble | 1.17 |  | Kd [1]: Active; Kd (Heme oxygenase): Active
CN(C)c1ccc(/C=N/NC(=N)N)cc1 | Soluble | 3.77 |  | Activity (Pseudomonas aeruginosa [4]): Active
NC(=O)NC(=O)C[n+]1ccc(C(N)=O)cc1 |  | -1.11 | Insoluble | 
O=C(O)Cn1c(=O)c2cc3c(=O)n(CC(=O)O)c(=O)c3cc2c1=O | Insoluble | -0.68 |  | Kd ([1]; read-out: Kd): 20.9 µM; Kd (Heme oxygenase; read-out: Kd): 6.1 µM
O=C(O)CCn1ncc2ccccc21 |  | 0.91 | Soluble | 
CC(=O)Oc1ccc(-c2cccc(C(=O)O)c2)cc1 | Soluble | 3.51 |  | MIC50 (Pseudomonas aeruginosa [6]): > 1000 µg/mL
O=C(O)c1cccc(NCN2C(=O)c3ccc([N+](=O)[O-])cc3C2=O)c1 |  | 2.13 | Insoluble | 
O=[N+]([O-])c1cccc(CN2CCNCC2)c1 | Soluble | 1.18 |  | MIC50 (Pseudomonas aeruginosa [6]): > 1000 µg/mL
CN(CC(=O)O)c1nc2ccc([N+](=O)[O-])cc2s1 | Soluble | 1.92 |  | Kd [1]: Active; Kd (Heme oxygenase): Active
Cc1cc(O)nc(-c2ccc(C(N)=O)cc2)n1 |  | 0.86 | Insoluble | 
COc1ccc(C(=O)/C=C/Nc2ccccc2C#N)cc1 |  | 2.82 | Insoluble | 
Nc1cnccc1C(=O)O |  | 0.32 to 3 |  | Kd ([1]; read-out: Kd): 33.5 µM; Kd (Heme oxygenase; read-out: Kd): 44.7 µM
Cc1n[nH]c(Nc2ccccc2F)c1[N+](=O)[O-] |  | 2.63 | Insoluble | 
O=C(O)C(=O)Cc1c[nH]c2ccccc12 |  | 1.59 | Soluble | Kd [1]: Active; Kd (Heme oxygenase): Active
O=[N+]([O-])c1cccc(-c2noc(Cc3ccccc3)n2)c1 |  | 3.33 | Insoluble | 
O=C(O)CN1C(=O)c2ccccc2C1=O | Soluble | 0.58 | Soluble | 
O=[N+]([O-])c1ccc(O)c(/C=N/c2cccc(CO)c2)c1 |  | 2.71 |  | solubility [7]: Insoluble
COc1ccc(C(=O)CCC(=O)O)c(C)c1 |  | 1.6 | Soluble | Kd [1]: Active; Kd (Heme oxygenase): Active
O=C(CNc1ccc2ccccc2c1)N/N=C/c1ccccn1 |  | 3.16 | Insoluble | 
CN(C)c1ccc(/C=N/n2nnnc2N)cc1 |  | 0.76 |  | Kd ([1]; read-out: Kd): 14.1 µM; Kd (Heme oxygenase; read-out: Kd): 15.8 µM; growth inhibition (GI) (Pseudomonas aeruginosa [8]): Active
C(=N\Nc1nc(-c2cccnc2)cs1)/c1cccnc1 | Insoluble | 4.24 |  | growth inhibition (GI) (Pseudomonas aeruginosa [9]): Active; Activity [10]: Active; growth inhibition (GI) (Pseudomonas aeruginosa [11]): Active; Activity (Pseudomonas aeruginosa [12]): 40%; Activity (Pseudomonas aeruginosa [13]): Active; Kd ([1]; read-out: Kd): 15.6 µM; Activity [14]: Active; Activity [15]: Active; Kd (Heme oxygenase; read-out: Kd): 20.9 µM; growth inhibition (GI) (Pseudomonas aeruginosa [8]): Active
NC(=O)c1ccc(NC(=O)/C=C\C(=O)O)cc1Cl | Soluble | 0.79 |  | Kd ([1]; read-out: Kd): 239 µM; Kd (Heme oxygenase; read-out: Kd): 187 µM

Structure (SMILES) | solubility [2] | logP [3] | solubility [5] | further results
Cc1ccc(S(=O)(=O)NC(=O)NCc2ccco2)cc1 |  | 1.2 | Insoluble | 
O=C(Cc1n[nH]c(=O)[nH]c1=O)N/N=C/c1cccc([N+](=O)[O-])c1 |  | 0.86 | Insoluble | 
O=C(O)CSc1ncnc2ccccc12 | Insoluble | 1.46 |  | MIC50 (Pseudomonas aeruginosa [6]): > 1000 µg/mL
COc1cc(/C=N/Cc2ccco2)ccc1O | Soluble | 2.07 |  | Kd [1]: Active; Kd (Heme oxygenase): Active
COc1ccc(-c2nn(CCC#N)c(=O)[nH]2)cc1 |  | 1.15 | Soluble | 
NNC(=O)c1cccc2cc[nH]c12 |  | 0.8 | Insoluble | 
O=C1C=C(Nc2ccccc2O)c2ccccc2C1=O |  | 2.8 | Soluble | 
N#CCc1ccc(NC2=NS(=O)(=O)c3ccccc32)cc1 | Insoluble | 2.81 |  | 
O=[N+]([O-])c1cccc(/C=N/Nc2ccc(S(=O)(=O)O)cc2)c1 | Insoluble | 4.62 |  | MIC50 (Pseudomonas aeruginosa [6]): > 1000 µg/mL
COc1cc(CC(=O)O)c([N+](=O)[O-])cc1OC |  | 1.3 | Insoluble | 
Cc1c(OC(C)C(=O)O)ccc2c3c(c(=O)oc12)CCC3 (stereo unspecified) | Insoluble | 2.6 |  | 
Nc1nonc1-c1noc(-c2cccnc2O)n1 | Insoluble | 0.04 |  | 
CCc1ccc2[nH]c3nc(N/N=C/c4ccc(Cl)cc4)nnc3c2c1 | Insoluble | 7.15 |  | 
CN(C)CCN(C)Cc1cccc2ccccc12 | Insoluble | 3.05 |  | 
Nc1cc(-c2ccc(F)cc2)nc(N)n1 |  | 1.07 | Soluble | Kd [1]: Active; Kd (Heme oxygenase): Active
CC(=O)Nc1ccc(/N=C/c2ccco2)cc1 | Soluble | 1.54 |  | 
O=C(O)c1ccc2c(c1)C(=O)N(c1ccc(Cl)cc1)C2=O | Soluble | 3.03 |  | 
Cc1ccccc1C(=O)Nc1cc(C(=O)O)cc(C(=O)O)c1 | Insoluble | 2.62 |  | Kd ([1]; read-out: Kd): 28.8 µM; Kd (Heme oxygenase; read-out: Kd): 72.8 µM
N#CC(C#N)=CNNC(=O)CNC(=O)c1ccccc1[N+](=O)[O-] |  | -0.72 | Insoluble | 
Cn1c(=N)n(CC(=O)O)c2ccccc21 |  | 1.6 | Soluble | 
O=C(O)c1ccc2c(c1)-c1nc3ccccc3n1C2=O |  | 2.52 | Insoluble | 
O=C(Nc1ccc(-c2cn3ccccc3n2)cc1)c1ccccc1[N+](=O)[O-] | Soluble | 3.56 |  | MIC50 (Pseudomonas aeruginosa [6]): > 380 µg/mL

From ChEMBL document CHEMBL3880431, “Heme oxygenase inhibitors, screening methods for heme oxygenase inhibitors and methods of use of heme oxygenase inhibitors for antimicrobial therapy” (2013)
